Where two headings read alike, the source gives them in different places.

These results are taken from patent publication US20140187784A1, “RADIOACTIVE QUINOLINONE DERIVATIVE AND PHARMACEUTICAL DRUG COMPRISING THE SAME” (Nihon Medi-Physics Co., Ltd., priority 2012, published 2014).

Assay [1] addresses T1, CYP11B2 (Homo sapiens, UniProt P19099).
T1 sequence (P19099 25-503): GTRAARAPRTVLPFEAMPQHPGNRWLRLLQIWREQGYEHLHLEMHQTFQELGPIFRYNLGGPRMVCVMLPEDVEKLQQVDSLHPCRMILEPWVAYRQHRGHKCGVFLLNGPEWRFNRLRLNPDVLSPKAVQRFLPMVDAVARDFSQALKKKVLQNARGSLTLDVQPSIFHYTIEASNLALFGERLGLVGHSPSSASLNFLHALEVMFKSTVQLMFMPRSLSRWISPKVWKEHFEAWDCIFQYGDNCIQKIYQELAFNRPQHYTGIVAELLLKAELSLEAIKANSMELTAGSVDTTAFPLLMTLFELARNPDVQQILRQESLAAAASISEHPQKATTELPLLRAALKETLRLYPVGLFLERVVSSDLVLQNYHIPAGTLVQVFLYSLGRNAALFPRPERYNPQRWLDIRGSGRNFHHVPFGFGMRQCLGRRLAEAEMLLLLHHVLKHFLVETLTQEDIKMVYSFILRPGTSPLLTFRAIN
The settings on record: reported by Stefanie Hahner et al., J Clin Endocrinol Metab 2008; cited from earlier work.

The target in a further assay is T2, human CYP11B1 (Homo sapiens, UniProt P15538).
T2 construct: expressed in transfected cells; host or cells: Chinese hamster lung-derived fibroblast V79 cells (V79-B1)
T2 sequence (P15538 25-503): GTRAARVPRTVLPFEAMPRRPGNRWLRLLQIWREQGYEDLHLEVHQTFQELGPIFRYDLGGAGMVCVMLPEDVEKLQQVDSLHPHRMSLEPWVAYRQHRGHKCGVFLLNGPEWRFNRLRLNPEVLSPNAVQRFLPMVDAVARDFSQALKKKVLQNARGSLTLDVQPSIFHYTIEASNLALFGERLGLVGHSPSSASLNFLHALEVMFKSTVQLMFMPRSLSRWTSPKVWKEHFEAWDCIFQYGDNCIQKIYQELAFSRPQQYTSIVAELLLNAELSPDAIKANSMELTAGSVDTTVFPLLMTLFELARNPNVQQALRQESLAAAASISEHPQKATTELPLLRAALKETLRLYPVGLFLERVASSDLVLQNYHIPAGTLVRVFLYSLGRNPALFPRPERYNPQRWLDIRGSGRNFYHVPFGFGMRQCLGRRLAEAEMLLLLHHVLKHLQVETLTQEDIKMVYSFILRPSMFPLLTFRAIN
The assay is described as follows: Inhibition of cortisol production in V79-B1 cells expressing human CYP11B1 (ELISA). It counts as cell-based. The settings on record: 11-deoxycortisol 100 nmol/L, 1 hour, unlabeled form, read-out: IC50 against cortisol production. Here is the method:
(§1) Chinese hamster lung-derived fibroblast V79 cells (obtained from European Collection of Cell Cultures (ECACC) via DS Pharma Biomedical Co., Ltd.) were allowed to express human CYP11B2 and human CYP11B1 to prepare V79-B2 and V79-B1, respectively. V79-B2 or V79-B1 was inoculated to a microplate and cultured overnight. Then, corticosterone and 11-deoxycortisol were added at final concentrations of 100 nmol/L into the culture supernatants of V79-B2 and V79-B1, respectively. At the same time, iodometomidate (IMTO) or the unlabeled form of PAY15, PAY21, PAY27, or PAY54 synthesized in Example 2, 5, 8, or 12 was added at a final concentration of 10^−4 to 10^3 nmol/L into the culture supernatants. One hour later, the culture supernatant of V79-B1 was recovered, and the concentration of cortisol, which is a metabolite of CYP11B1, was measured by enzyme-linked immunosorbent assay (ELISA). Four hours later, the culture supernatant of V79-B2 was recovered, and the concentration of aldosterone, which is a metabolite of CYP11B2, was measured by ELISA. […] IC50 against cortisol production/IC50 against aldosterone production was calculated and used as a selectivity factor for CYP11B2.
For orientation: An ELISA detects its analyte on a solid surface through an enzyme-linked reagent.

Assay [2] deals with T1, CYP11B2. The experiment in a line: Inhibition of aldosterone production in V79-B2 cells expressing human CYP11B2 (ELISA). It counts as cell-based. The arrangement: expressed in transfected cells; host or cells: Chinese hamster lung-derived fibroblast V79 cells (V79-B2). The conditions noted are these: for Selectivity factor: IC50 against cortisol production/IC50 against aldosterone production, selectivity factor for CYP11B2; for IC50: V79-B2 cells, corticosterone 100 nmol/L, 4 hours, unlabeled form, read-out: IC50 against aldosterone production; for selectivity factor compared with IMTO: selectivity factor for CYP11B2, Table 6. Here is the method:
as §1

For the compound `C[C@H](c1ccccc1)n1cncc1C(=O)OCCF` [FETO, fluoroetomidate], the Selectivity factor on CYP11B2 [1] is 0.145.
For the compound `COC(=O)c1cncn1[C@H](C)c1ccc(I)cc1` [IMTO, iodometomidate, reference compound], the results for the half-inhibitory concentration (IC50) at human CYP11B1 and at CYP11B2 [2] were 0.13 nM and 0.14 nM, respectively. The Selectivity factor is on record as 0.261 at CYP11B2 [1] and 0.93 on CYP11B2 [2].
For `COC(=O)c1cncn1C(C)c1ccccc1` (stereo not shown) [MTO, metomidate], at CYP11B2 [1], the Selectivity factor was 0.275 and the “selectivity for CYP11B1 versus CYP11B2” value is listed as “higher selectivity for steroid 11β-hydroxylase (CYP11B1) than that for aldosterone synthase (CYP11B2)”.
With `O=C1CCc2cc(-c3cncc(I)c3)cc3c2N1CC3` [PAY21, 8-(5-iodopyridin-3-yl)-1,2,5,6-tetrahydro-4H-pyrrolo[3,2,1-ij]quinolin-4-one], the IC50 on human CYP11B1 stood at 21.1 nM. In addition, on CYP11B2 [2], the Selectivity factor is given as 26.09, the IC50 is 0.81 nM and the “selectivity factor compared with IMTO” value is given as “higher than that of IMTO”.
With `O=C1CCc2cc(-c3cncc(OCCF)c3)cc3c2N1CCC3` [PAY27, 9-(5-(2-fluoroethyloxy)pyridin-3-yl)-1,2,6,7-tetrahydro-5H-pyrido[3,2,1-ij]quinolin-3-one], the IC50 on human CYP11B1 is 78.6 nM. Further, at CYP11B2 [2], the Selectivity factor came out at 81.42, the half-maximal inhibitory concentration (IC50) came out at 0.97 nM and the “selectivity factor compared with IMTO” value is recorded as “higher than that of IMTO”.
Turning to `O=C1CCc2cc(-c3cncc(OCCF)c3)cc3c2N1CC3` [PAY54, 8-(5-(2-fluoroethyloxy)pyridin-3-yl)-1,2,5,6-tetrahydro-4H-pyrrolo[3,2,1-ij]quinolin-4-one], at human CYP11B1, the IC50 is 13.1 nM. At CYP11B2 [2], the Selectivity factor was 55.49, the IC50 worked out at 0.24 nM and the “selectivity factor compared with IMTO” value is “higher than that of IMTO”.

Broadly, the IC50 is the point on the concentration scale where inhibition reaches its midpoint.
